Laboratory results taken from patent US10633377B2, “Imidazole and thiazole compositions for modifying biological signaling” (Ohio University, priority 2014, dated 2020).
Read-outs that look alike come from different tables or passages of the source.

How the values were obtained:
[1] = tested on: iNOS transcripts; assay: Inhibition of LPS induction of iNOS transcripts in macrophages (rt-PCR); format: cell-based; details: LPS-treated murine macrophages, mRNA transcripts by rt-PCR
Protocol: (§1) Murine macrophages were treated with LPS in the presence of various exemplary compounds described above. Subsequently, the cells were harvested and the transcripts for IL-6, iNOS, and INF-β quantified via rt-PCR. IC50 is the concentration of the compounds required to inhibit 50% of the mRNA transcripts induced by LPS. TC50 is the concentration of the compounds required to diminish the MTS signal by 50% (MTS signal correlates with cell metabolism/viability). Therapeutic Index (TI) is the ratio of TC50 to IC50.
(§2) In TABLE 4, data are provided that show effects of exemplary compounds described above on the inhibition of LPS induction of IL-6, iNOS, and INF-β transcripts in macrophages. The IL-6, iNOS, and INF-β transcripts are key mediators in a plethora of signaling networks that are involved in normal physiology and pathological processes. The mechanism by which LPS induces the IL-6, iNOS, and INF-β transcripts is via a network of signaling events. […] Data in TABLE 4 that was not calculatable is noted “NC.”

[2] = tested on: INF-β transcripts; assay: Inhibition of LPS induction of INF-β transcripts in macrophages (rt-PCR); format: cell-based, Murine; details: for IC50: LPS-treated murine macrophages, mRNA transcripts by rt-PCR
Protocol: as §1, §2

[3] = MTS signal (cell metabolism/viability); format: cell-based, Murine; details: mouse, murine macrophages; concentration required to diminish the MTS signal by 50%; read-out: Average TC50
Protocol: as §1

[4] = tested on: IL-6 transcripts; assay: Inhibition of LPS induction of IL-6 transcripts in macrophages (rt-PCR); format: cell-based, Murine; details: for IC50: LPS-treated murine macrophages, mRNA transcripts by rt-PCR
Protocol: as §1, §2

[5] = tested on: Murine macrophages; assay: MTS signal (cell metabolism/viability); format: cell-based
Protocol: as §1

Row | Compound | IC50 ([1]; Mus musculus, Macrophage) [µM] | IC50 ([2]; Mus musculus, Macrophage) [µM] | IC50 ([4]; Mus musculus, Macrophage) [µM] | CC50 [3] [µM] | also measured
1 | Oc1ccc(C2(O)CSC(=S)N2Cc2cccnc2)c(O)c1 (centres unmarked) [COB-200] | 0.5 | 0.4 | – | 11 | –
2 | OC1(c2ccccc2)CSC(=S)N1Cc1cccc(CN2C(=S)SCC2(O)c2ccccc2)c1 (centres unmarked) [COB-186] | 1.9 | – | – | 4 | IL-6 inhibition printed in IC50 column ([4]; 0.03 μM-2 μM): <30%; INF-β inhibition printed in IC50 column ([2]; 0.5 μM-2 μM): 40%
3 | CCn1c(-c2cccc(Cl)c2)c[nH]c1=O [COB-125] | 43 | 36 | 31 | 500 | –
4 | CCCN1C(=S)SCC1(O)c1cccnc1 (centres unmarked) [COR-207] | 2.7 | 2.1 | 12 | – | –
5 | COc1ccc(-c2c[nH]c(=S)n2C)c(OC)c1 [COB-130] | 26 | 47 | 29 | – | –
6 | C=CCn1c(-c2ccccc2)csc1=S [COB-217] | – | – | – | – | IC50 [4]: 8.2 µM; IC50 [1]: ~10 µM; IC50 [2]: ~10 µM; MTS signal decrease [5]: 30%
7 | COc1ccc(OC)c(C2(O)CSC(=S)N2Cc2ccccc2)c1 (centres unmarked) [COB-143] | 3 | 1 | 13 | 23 | –
8 | COc1ccc(C2(O)CSC(=S)N2Cc2cccnc2)c(OC)c1 (centres unmarked) [COB-199] | 2.2 | > 5 | – | 23 | –
9 | COc1ccc(-c2c[nH]c(=S)n2C)cc1OC [COB-123] | 55 | 21 | 19 | – | –
10 | Oc1cccc(C2(O)CSC(=S)N2Cc2ccccc2)c1 (centres unmarked) [COB-196] | 0.5 | 0.375 | – | 17 | –

Now from value to molecule, other results behind:

Row | IC50 ([1]; Mus musculus, Macrophage) [µM] | IC50 ([2]; Mus musculus, Macrophage) [µM] | IC50 ([4]; Mus musculus, Macrophage) [µM] | Compound | CC50 [3] [µM] | also measured
11 | 10.5 | – | 6 | CCCn1c(-c2cccnc2)csc1=S [COB-214] | 230 | –
12 | 2.2 | 4.4 | – | O=c1oc2ccccc2cc1C1(O)CSC(=S)N1Cc1cccnc1 (centres unmarked) [COB-202] | 43 | –
13 | 1.8 | 1.5 | > 10 | Oc1ccc(Cl)cc1C1(O)CSC(=S)N1Cc1ccccc1 (centres unmarked) [COB-221] | 18 | –
14 | ~10 | ~10 | 8.1 | CCCn1c(-c2ccc(C#N)cc2)csc1=S [COR-216] | > 100 | –
15 | 1.5 | 1.5 | 12.5 | OC1(c2cc(C(F)(F)F)ccc2Cl)CSC(=S)N1Cc1cccnc1 (centres unmarked) [COB-226] | 33 | –
16 | 0.4 | 0.45 | 3.5 | Cc1ccccc1C1(O)CSC(=S)N1Cc1cccnc1 (centres unmarked) [COB-224] | 13 | –
17 | ~20 | 16.5 | 8.5 | CCCn1c(-c2ccc(Cl)c(Cl)c2)csc1=S [COB-219] | – | MTS signal decrease ([5]; 100 μM): 30%
18 | 3.4 | 3.6 | – | CCCCCCN1C(=S)SCC1(O)c1ccccc1 (centres unmarked) [COB-212] | 54 | –
19 | 3.75 | 12.2 | 5.5 | CCCn1c(-c2cc(OC)ccc2OC)csc1=S [COB-220] | 60 | –
20 | ~10 | ~10 | 8.8 | CCCn1c(-c2cccc([N+](=O)[O-])c2)csc1=S [COB-215] | ~100 | –
